{
  "source": "ChEMBL document CHEMBL4507276",
  "about": "(2021)",
  "key": {"[1]": {"molecular_target": "5-hydroxytryptamine receptor 7 (Homo sapiens) (UniProt P34969)", "assay": "5HT7/H Cerep selectivity data (BI)", "conditions": "Compound concentration 20.0 uM"}, "[2]": {"molecular_target": "Acetylcholinesterase (Homo sapiens) (UniProt P22303)", "assay": "ACHE/H Cerep selectivity data (BI)", "conditions": "Compound concentration 20.0 uM"}, "[3]": {"molecular_target": "Vascular endothelial growth factor receptor 1 (Homo sapiens) (UniProt P17948)", "assay": "FLT-1(VEGFR1)_CE Cerep selectivity data (BI)", "conditions": "Compound concentration 20.0 uM"}, "[4]": {"molecular_target": "Melanin-concentrating hormone receptor 1 (Homo sapiens) (UniProt Q99705)", "assay": "MCH1H_AGON Cerep selectivity data (BI)", "conditions": "filed as agonist, Compound concentration 20.0 uM"}, "[5]": {"molecular_target": "cGMP-specific 3',5'-cyclic phosphodiesterase (Homo sapiens) (UniProt O76074)", "assay": "PDE5 Cerep selectivity data (BI)", "conditions": "Compound concentration 20.0 uM"}, "[6]": {"molecular_target": "Peroxisome proliferator-activated receptor gamma (Homo sapiens) (UniProt P37231)", "assay": "PPARG/H AG Cerep selectivity data (BI)", "conditions": "filed as agonist, Compound concentration 20.0 uM"}, "[7]": {"molecular_target": "Substance-P receptor (Homo sapiens) (UniProt P25103)", "assay": "NK1/HU Eurofins-Panlabs selectivity data (BI)", "conditions": "Compound concentration 10.0 uM"}, "[8]": {"molecular_target": "Glutamate receptor ionotropic, NMDA 2A (Rattus norvegicus) (UniProt Q00959)", "sequence (Q00959 23-1464 limits assumed)": "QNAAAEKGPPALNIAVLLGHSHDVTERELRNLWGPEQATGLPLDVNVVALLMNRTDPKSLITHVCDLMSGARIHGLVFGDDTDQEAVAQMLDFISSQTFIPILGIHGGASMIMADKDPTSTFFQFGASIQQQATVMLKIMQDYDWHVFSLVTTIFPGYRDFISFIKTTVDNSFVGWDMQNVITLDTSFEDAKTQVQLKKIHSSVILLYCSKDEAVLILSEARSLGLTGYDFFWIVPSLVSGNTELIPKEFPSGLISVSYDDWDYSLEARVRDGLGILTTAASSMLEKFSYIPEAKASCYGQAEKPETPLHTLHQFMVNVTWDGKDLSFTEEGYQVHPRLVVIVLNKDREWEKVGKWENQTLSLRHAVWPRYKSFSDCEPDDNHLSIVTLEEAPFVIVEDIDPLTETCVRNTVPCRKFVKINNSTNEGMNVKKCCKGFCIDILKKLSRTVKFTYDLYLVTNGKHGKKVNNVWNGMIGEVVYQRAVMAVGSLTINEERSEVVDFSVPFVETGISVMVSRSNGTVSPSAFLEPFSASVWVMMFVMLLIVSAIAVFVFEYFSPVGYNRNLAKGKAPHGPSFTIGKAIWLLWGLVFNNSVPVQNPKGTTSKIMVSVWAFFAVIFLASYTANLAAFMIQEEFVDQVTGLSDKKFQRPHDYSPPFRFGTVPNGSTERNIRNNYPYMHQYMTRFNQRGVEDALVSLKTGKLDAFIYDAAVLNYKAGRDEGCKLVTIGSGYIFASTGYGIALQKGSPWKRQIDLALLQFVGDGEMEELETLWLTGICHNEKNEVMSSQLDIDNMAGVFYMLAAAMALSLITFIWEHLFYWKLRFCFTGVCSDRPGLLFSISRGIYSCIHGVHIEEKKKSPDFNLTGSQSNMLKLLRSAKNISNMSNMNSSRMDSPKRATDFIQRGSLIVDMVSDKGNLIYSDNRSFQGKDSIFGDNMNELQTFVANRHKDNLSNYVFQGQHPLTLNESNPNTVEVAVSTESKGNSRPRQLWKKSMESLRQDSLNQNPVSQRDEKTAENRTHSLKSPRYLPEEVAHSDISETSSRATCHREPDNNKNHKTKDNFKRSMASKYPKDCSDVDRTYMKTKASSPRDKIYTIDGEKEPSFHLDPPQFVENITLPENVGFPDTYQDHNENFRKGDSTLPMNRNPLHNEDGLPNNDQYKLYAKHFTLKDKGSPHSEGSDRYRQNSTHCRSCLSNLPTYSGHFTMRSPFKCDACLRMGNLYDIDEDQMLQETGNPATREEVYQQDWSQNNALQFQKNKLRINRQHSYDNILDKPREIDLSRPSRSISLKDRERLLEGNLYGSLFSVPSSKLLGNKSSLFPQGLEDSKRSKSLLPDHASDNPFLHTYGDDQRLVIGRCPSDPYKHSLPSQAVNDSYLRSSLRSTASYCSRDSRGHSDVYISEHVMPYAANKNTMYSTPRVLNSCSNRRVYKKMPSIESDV", "assay": "NMDAPHSI/R Eurofins-Panlabs selectivity data (BI)", "conditions": "Compound concentration 10.0 uM"}, "[9]": {"molecular_target": "Thyroid hormone receptor alpha (Rattus norvegicus) (UniProt P63059)", "sequence (P63059 whole entry)": "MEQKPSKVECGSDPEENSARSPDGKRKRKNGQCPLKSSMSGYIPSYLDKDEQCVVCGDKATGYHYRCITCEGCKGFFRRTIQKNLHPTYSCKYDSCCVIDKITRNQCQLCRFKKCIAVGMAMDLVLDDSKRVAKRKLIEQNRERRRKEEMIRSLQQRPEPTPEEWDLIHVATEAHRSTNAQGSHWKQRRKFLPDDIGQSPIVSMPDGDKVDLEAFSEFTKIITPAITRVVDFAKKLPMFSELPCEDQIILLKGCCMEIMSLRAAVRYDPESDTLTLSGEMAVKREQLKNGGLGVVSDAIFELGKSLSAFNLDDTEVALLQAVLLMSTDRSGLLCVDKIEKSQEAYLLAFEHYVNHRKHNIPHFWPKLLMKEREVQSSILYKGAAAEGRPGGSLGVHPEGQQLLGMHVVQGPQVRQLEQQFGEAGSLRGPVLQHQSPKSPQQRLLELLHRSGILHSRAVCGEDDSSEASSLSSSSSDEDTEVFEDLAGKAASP", "assay": "THYROID HORM Eurofins-Panlabs selectivity data (BI)", "conditions": "Compound concentration 10.0 uM"}, "[10]": {"molecular_target": "Neuropeptide Y receptor type 1 (Homo sapiens) (UniProt P25929)", "sequence (P25929 whole entry)": "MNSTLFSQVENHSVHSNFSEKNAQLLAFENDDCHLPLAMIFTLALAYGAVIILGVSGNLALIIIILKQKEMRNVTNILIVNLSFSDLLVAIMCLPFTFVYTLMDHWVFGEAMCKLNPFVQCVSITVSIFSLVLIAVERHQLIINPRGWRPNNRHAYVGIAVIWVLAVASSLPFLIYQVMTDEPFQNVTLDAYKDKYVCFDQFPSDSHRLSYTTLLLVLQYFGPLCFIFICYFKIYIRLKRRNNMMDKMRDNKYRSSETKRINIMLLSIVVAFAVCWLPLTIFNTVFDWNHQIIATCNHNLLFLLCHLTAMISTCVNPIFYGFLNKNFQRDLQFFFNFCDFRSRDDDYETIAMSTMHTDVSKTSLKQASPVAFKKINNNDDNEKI", "assay": "Y1/HU Eurofins-Panlabs selectivity data (BI)", "conditions": "Compound concentration 10.0 uM"}, "[11]": {"molecular_target": "Activin receptor type-2B (Homo sapiens) (UniProt Q13705)", "sequence (Q13705 whole entry)": "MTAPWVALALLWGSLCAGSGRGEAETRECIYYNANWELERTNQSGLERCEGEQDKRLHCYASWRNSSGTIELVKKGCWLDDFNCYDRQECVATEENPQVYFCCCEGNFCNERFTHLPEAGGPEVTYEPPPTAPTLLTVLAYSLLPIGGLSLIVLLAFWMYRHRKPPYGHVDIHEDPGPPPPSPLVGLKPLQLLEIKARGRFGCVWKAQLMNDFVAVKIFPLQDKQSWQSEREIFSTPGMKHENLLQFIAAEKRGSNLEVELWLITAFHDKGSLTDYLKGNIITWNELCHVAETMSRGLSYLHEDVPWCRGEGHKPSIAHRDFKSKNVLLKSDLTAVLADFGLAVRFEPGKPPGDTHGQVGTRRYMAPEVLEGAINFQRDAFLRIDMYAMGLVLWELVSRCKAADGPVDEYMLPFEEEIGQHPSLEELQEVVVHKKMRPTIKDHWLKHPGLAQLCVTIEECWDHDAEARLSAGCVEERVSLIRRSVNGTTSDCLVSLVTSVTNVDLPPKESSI", "assay": "ACVR2B Invitrogen selectivity data (BI)", "conditions": "Compound concentration 3.0 uM"}, "[12]": {"molecular_target": "Serine/threonine-protein kinase B-raf (Homo sapiens) (UniProt P15056)", "assay": "BRAF Invitrogen selectivity data (BI)", "conditions": "Compound concentration 3.0 uM"}, "[13]": {"molecular_target": "T1, Ephrin type-A receptor 8 (Homo sapiens) (UniProt P29322)", "T1 sequence (whole entry)": "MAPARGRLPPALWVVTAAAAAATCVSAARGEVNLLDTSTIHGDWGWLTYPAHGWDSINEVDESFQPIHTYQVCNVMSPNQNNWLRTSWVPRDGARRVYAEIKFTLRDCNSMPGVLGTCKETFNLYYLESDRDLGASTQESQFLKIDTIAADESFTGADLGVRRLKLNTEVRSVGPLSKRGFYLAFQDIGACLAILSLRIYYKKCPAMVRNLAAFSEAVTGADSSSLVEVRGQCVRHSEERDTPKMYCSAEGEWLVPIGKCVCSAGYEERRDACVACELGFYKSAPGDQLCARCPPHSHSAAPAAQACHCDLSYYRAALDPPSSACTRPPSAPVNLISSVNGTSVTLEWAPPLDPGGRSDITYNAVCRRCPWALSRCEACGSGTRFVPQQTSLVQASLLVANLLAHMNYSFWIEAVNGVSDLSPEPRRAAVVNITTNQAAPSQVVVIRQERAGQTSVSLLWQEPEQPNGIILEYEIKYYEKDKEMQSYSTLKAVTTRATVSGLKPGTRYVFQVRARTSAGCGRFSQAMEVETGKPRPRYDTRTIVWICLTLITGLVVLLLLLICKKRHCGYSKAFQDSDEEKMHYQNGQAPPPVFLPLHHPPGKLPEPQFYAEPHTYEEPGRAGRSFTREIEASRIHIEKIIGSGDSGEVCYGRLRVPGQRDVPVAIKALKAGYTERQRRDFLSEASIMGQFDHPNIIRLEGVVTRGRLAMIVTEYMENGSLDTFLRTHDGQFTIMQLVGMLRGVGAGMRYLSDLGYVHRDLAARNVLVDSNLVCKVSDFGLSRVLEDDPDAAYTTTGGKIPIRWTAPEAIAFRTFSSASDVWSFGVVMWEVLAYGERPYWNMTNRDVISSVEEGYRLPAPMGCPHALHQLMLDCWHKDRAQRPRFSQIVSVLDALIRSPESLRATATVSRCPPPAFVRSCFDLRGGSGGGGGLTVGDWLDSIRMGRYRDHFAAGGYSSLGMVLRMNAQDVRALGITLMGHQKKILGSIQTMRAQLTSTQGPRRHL", "assay": "EPHA8 Invitrogen selectivity data (BI)", "conditions": "Compound concentration 3.0 uM"}, "[14]": {"system": "Fibroblast growth factor receptor 3 (Homo sapiens), P22607 [K650E]", "assay": "FGFR3 K650E Invitrogen selectivity data (BI)", "conditions": "Compound concentration 3.0 uM"}, "[15]": {"molecular_target": "Serine/threonine-protein kinase mTOR (Homo sapiens) (UniProt P42345)", "assay": "FRAP1 (MTOR) Invitrogen selectivity data (BI)", "conditions": "Compound concentration 3.0 uM"}, "[16]": {"molecular_target": "G protein-coupled receptor kinase 5 (Homo sapiens) (UniProt P34947)", "assay": "GRK5 Invitrogen selectivity data (BI)", "conditions": "Compound concentration 3.0 uM"}, "[17]": {"system": "Tyrosine-protein kinase JAK2 (Homo sapiens), O60674 [V617F]", "assay": "JAK2 V617F Invitrogen selectivity data (BI)", "conditions": "Compound concentration 3.0 uM"}, "[18]": {"molecular_target": "Mitogen-activated protein kinase kinase kinase kinase 5 (Homo sapiens) (UniProt Q9Y4K4)", "sequence (Q9Y4K4 whole entry, looked up)": "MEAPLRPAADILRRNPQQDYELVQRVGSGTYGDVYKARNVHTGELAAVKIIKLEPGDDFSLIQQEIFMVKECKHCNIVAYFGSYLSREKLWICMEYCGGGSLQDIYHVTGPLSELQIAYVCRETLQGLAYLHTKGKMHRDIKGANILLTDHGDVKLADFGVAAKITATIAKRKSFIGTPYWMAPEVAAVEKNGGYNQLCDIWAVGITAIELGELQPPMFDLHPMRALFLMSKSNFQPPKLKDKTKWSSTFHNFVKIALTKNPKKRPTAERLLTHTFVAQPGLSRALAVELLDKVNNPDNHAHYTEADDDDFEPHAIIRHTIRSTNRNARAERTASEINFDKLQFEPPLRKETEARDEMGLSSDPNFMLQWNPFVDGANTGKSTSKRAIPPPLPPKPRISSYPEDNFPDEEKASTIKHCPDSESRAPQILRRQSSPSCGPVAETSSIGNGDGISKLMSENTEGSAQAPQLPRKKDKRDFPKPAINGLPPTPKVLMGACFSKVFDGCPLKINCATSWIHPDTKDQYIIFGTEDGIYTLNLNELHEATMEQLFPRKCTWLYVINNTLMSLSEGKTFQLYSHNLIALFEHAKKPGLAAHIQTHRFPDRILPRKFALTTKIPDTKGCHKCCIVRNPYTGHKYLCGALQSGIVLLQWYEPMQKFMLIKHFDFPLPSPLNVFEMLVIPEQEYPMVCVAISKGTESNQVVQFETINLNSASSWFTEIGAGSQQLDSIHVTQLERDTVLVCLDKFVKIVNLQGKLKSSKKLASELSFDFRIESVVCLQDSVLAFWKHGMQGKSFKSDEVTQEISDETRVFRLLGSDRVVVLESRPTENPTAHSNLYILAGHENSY", "assay": "MAP4K5 Invitrogen selectivity data (BI)", "conditions": "Compound concentration 3.0 uM"}, "[19]": {"molecular_target": "Maternal embryonic leucine zipper kinase (Homo sapiens) (UniProt Q14680)", "assay": "MELK Invitrogen selectivity data (BI)", "conditions": "Compound concentration 3.0 uM"}, "[20]": {"molecular_target": "MAP kinase-interacting serine/threonine-protein kinase 2 (Homo sapiens) (UniProt Q9HBH9)", "assay": "MKNK2 (MNK2) Invitrogen selectivity data (BI)", "conditions": "Compound concentration 3.0 uM"}, "[21]": {"molecular_target": "Myosin light chain kinase 2, skeletal/cardiac muscle (Homo sapiens) (UniProt Q9H1R3)", "sequence (Q9H1R3 whole entry)": "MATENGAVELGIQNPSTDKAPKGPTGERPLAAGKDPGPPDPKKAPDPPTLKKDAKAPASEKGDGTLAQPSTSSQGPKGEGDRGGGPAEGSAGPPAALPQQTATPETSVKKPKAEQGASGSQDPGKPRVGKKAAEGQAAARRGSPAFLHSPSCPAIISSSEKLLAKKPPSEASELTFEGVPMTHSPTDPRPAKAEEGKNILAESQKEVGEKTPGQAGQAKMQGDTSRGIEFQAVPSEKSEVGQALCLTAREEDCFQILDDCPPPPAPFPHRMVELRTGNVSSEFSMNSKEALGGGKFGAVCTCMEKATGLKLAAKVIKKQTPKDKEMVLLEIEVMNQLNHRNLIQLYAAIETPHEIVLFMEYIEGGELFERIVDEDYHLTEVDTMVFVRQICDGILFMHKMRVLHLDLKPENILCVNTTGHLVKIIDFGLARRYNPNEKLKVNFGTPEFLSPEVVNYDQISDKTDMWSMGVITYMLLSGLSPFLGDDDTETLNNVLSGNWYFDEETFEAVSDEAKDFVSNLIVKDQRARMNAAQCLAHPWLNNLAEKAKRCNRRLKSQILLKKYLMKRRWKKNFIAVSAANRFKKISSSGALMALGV", "assay": "MYLK2 Invitrogen selectivity data (BI)", "conditions": "Compound concentration 3.0 uM"}, "[22]": {"molecular_target": "Serine/threonine-protein kinase PAK 4 (Homo sapiens) (UniProt O96013)", "assay": "PAK4 Invitrogen selectivity data (BI)", "conditions": "Compound concentration 3.0 uM"}, "[23]": {"molecular_target": "Serine/threonine-protein kinase PLK1 (Homo sapiens) (UniProt P53350)", "assay": "PLK1 Invitrogen selectivity data (BI)", "conditions": "Compound concentration 3.0 uM"}, "[24]": {"system": "Proto-oncogene tyrosine-protein kinase receptor Ret (Homo sapiens), P07949 [V804L]", "assay": "RET V804L Invitrogen selectivity data (BI)", "conditions": "Compound concentration 3.0 uM"}, "[25]": {"molecular_target": "Ribosomal protein S6 kinase alpha-5 (Homo sapiens) (UniProt O75582)", "sequence (O75582 whole entry, looked up)": "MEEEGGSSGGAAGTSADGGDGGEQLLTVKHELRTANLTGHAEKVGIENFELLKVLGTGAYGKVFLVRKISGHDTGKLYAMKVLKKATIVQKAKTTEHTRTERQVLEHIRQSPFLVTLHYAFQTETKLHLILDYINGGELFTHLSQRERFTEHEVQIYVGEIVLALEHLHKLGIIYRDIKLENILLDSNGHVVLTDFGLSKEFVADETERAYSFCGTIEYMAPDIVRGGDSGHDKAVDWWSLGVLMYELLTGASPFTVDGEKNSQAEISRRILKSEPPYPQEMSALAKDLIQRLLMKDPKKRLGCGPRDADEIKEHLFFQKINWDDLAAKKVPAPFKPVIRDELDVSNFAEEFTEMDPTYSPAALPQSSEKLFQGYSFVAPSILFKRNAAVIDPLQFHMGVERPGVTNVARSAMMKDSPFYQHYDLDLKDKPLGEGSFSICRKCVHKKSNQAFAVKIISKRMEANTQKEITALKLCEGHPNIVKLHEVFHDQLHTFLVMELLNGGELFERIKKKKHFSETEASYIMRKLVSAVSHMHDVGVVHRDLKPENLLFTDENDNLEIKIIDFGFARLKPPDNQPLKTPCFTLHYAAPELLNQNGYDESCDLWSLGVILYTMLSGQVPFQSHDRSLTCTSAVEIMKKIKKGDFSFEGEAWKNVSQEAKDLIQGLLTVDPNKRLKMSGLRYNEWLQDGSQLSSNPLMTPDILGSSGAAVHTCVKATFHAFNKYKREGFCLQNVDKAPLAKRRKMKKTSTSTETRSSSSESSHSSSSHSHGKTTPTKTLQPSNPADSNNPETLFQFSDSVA", "assay": "RPS6KA5 Invitrogen selectivity data (BI)", "conditions": "Compound concentration 3.0 uM"}, "[26]": {"molecular_target": "Serine/threonine-protein kinase WNK2 (Homo sapiens) (UniProt Q9Y3S1)", "assay": "WNK2 Invitrogen selectivity data (BI)", "conditions": "Compound concentration 3.0 uM"}},
  "data": [
    {"smiles": "CN(C)C(=O)Cn1cc(-c2nc([C@@](C)(c3ccc(-c4cnc(N)nc4)cc3)C3CC3)no2)cn1", "note": "[BI 665915]", "values": [
      {"measurement": "residual activity", "setting": "[1]", "result": 104, "unit": "%"},
      {"measurement": "residual activity", "setting": "[2]", "result": 98, "unit": "%"},
      {"measurement": "residual activity", "setting": "[3]", "result": 36, "unit": "%"},
      {"measurement": "residual activity", "setting": "[4]", "result": 116, "unit": "%"},
      {"measurement": "residual activity", "setting": "[5]", "result": 89, "unit": "%"},
      {"measurement": "residual activity", "setting": "[6]", "result": 93, "unit": "%"},
      {"measurement": "residual activity", "setting": "[7]", "result": 104, "unit": "%"},
      {"measurement": "residual activity", "setting": "[8]", "result": 111, "unit": "%"},
      {"measurement": "residual activity", "setting": "[9]", "result": 80, "unit": "%"},
      {"measurement": "residual activity", "setting": "[10]", "result": 109, "unit": "%"},
      {"measurement": "residual activity", "setting": "[11]", "result": 97, "unit": "%"},
      {"measurement": "residual activity", "setting": "[12]", "result": 95, "unit": "%"},
      {"measurement": "residual activity", "setting": "[13]", "result": 98.5, "unit": "%"},
      {"measurement": "residual activity", "setting": "[14]", "result": 91, "unit": "%"},
      {"measurement": "residual activity", "setting": "[15]", "result": 104, "unit": "%"},
      {"measurement": "residual activity", "setting": "[16]", "result": 100, "unit": "%"},
      {"measurement": "residual activity", "setting": "[17]", "result": 96, "unit": "%"},
      {"measurement": "residual activity", "setting": "[18]", "result": 93, "unit": "%"},
      {"measurement": "residual activity", "setting": "[19]", "result": 94, "unit": "%"},
      {"measurement": "residual activity", "setting": "[20]", "result": 99, "unit": "%"},
      {"measurement": "residual activity", "setting": "[21]", "result": 89.5, "unit": "%"},
      {"measurement": "residual activity", "setting": "[22]", "result": 93.5, "unit": "%"},
      {"measurement": "residual activity", "setting": "[23]", "result": 97, "unit": "%"},
      {"measurement": "residual activity", "setting": "[24]", "result": 72, "unit": "%"},
      {"measurement": "residual activity", "setting": "[25]", "result": 97.5, "unit": "%"},
      {"measurement": "residual activity", "setting": "[26]", "result": 96, "unit": "%"}
    ]}
  ]
}
